Experimental data published in patent US11174464B2, “Method for preparing osteoblasts and osteoblast inducer” (KYOTO PREFECTURAL PUBLIC UNIVERSITY CORPORATION, priority 2014, dated 2021).

Legend:
[1] = tested on: normal human dermal fibroblast (HDF) strain; assay: Alizarin Red S staining of calcified bone matrix in fibroblasts cultured in induction medium; conditions: for Alizarin Red S staining intensity (OD 550-650 nm), ability to produce calcified matrix: 28 days (FIG. 10); for Alizarin Red S staining images and intensity (OD 550-650 nm), ability to produce calcified matrix: 28 days (FIG. 19)
[2] = tested on: human alkaline phosphatase (ALP) gene; assay: Real-time RT-PCR of ALP mRNA in cultured HDF; type: cell-based; conditions: 10% FBS induction medium, 28 days, relative to normal human fibroblasts = 1 (FIG. 13)
Protocol: Then, total RNA was collected from the cells using ISOGEN II, and cDNA was synthesized using ReverTra Ace qPCR RT Master Mix. Real-time PCR Master Mix, TaqMan probes, specific primers, and cDNA were mixed, and real-time RT-PCR was performed using an AB7300 Real-Time PCR System to quantify the mRNA of Runx2, osteocalcin (OC), and alkaline phosphatase (ALP) genes. […] Further, RNA was harvested from human osteoblasts, and the same analysis was performed.
The culture was performed as in “2-1” above by adding the stated compounds.
Then, total RNA was collected from the cells using ISOGEN II, and cDNA was synthesized using ReverTra Ace qPCR RT Master Mix. Real-time PCR Master Mix, and a TaqMan probe and primers specific to a human alkaline phosphatase (ALP) gene were added, and real-time RT-PCR was performed using an AB7300 Real-Time PCR System. Furthermore, total RNA was extracted from osteoblasts from normal human bone, and analysis was performed in a similar manner.
Furthermore, total RNA was extracted from osteoblasts from normal human bone, and analysis was performed in a similar manner.
Twenty-eight days after the culture, the mRNA expression of ALP gene in the cells in each well was analyzed by real-time RT-PCR, as in “2-3” above. Furthermore, total RNA was extracted from osteoblasts from normal human bone, and analysis was performed in a similar manner.

human Runx2 gene = assay: Real-time RT-PCR of Runx2 mRNA in cultured HDF; type: cell-based; conditions: induction medium, 28 days (FIG. 17)
Protocol: The culture was performed as in “1” above by adding the stated compounds.
Then, total RNA was collected from the cells using ISOGEN II, and cDNA was synthesized using ReverTra Ace qPCR RT Master Mix. Real-time PCR Master Mix, and a TaqMan probe and primers specific to human Runx2 gene were added, and real-time RT-PCR was performed using an AB7300 Real-Time PCR System.

[3] = tested on: Normal human white preadipocytes (HWPs); assay: Alizarin Red S staining, induction from normal human white preadipocytes; type: cell-based; conditions: induction medium with 10% FBS, 21 days (FIG. 23)
human osteocalcin (OC) = assay: Real-time RT-PCR of osteocalcin (OC) mRNA in cultured HDF; type: cell-based; conditions: 5% human serum induction medium, 28 days (FIG. 16)
Protocol: The culture was performed as in “2-6” above by adding the stated compounds.
Then, total RNA was collected from the cells using ISOGEN II, and cDNA was synthesized using ReverTra Ace qPCR RT Master Mix. Real-time PCR Master Mix, and a TaqMan probe and primers specific to human osteocalcin (OC) were added, and real-time RT-PCR was performed using an AB7300 Real-Time PCR System.

Compound	Alizarin Red S staining intensity (OD 550-650 nm), ability to produce calcified matrix ([1]; induction medium with 10% FBS)	ALP mRNA expression by real-time RT-PCR [2]	Runx2 mRNA expression by real-time RT-PCR (human Runx2 gene)	Alizarin Red S staining images and intensity (OD 550-650 nm), ability to produce calcified matrix [1]	Alizarin Red S staining images, ability to produce calcified matrix [3]	Alizarin Red S staining images and intensity, ability to produce calcified matrix ([1]; induction medium with 5% human serum, 28 days (FIG. 12))	Alizarin Red S staining images and intensity, ability to produce calcified matrix ([1]; induction medium with 10% FBS, 28 days (FIG. 11))	osteocalcin (OC) mRNA expression by real-time RT-PCR (human osteocalcin (OC))
CC(C)c1c(C(=O)Nc2ccccc2)c(-c2ccccc2)c(-c2ccc(F)cc2)n1CC[C@@H](O)C[C@@H](O)CC(=O)O [AS, atorvastatin]	induced the ability to produce calcified matrix	induced the mRNA expression of ALP gene	induced the mRNA expression of Runx2 gene	–	–	–	–	–
O=C(O)c1ccc2c(c1)nc(Nc1cccc(Cl)c1)c1ccncc12 [CX-4945]	–	–	–	no effect	–	–	–	–
NC(=O)c1ccc(-c2nc(-c3ccc4c(c3)OCCO4)c(-c3ccccn3)[nH]2)cc1 [D4476, 4-[4-(2,3-dihydro-1,4-benzodioxin-6-yl)-5-(2-pyridinyl)1H-imidazol-2-yl]-benzamide]	induced the ability to produce calcified matrix	induced the mRNA expression of ALP gene	–	induced the ability to produce calcified matrix	strongly induced the ability to produce calcified matrix	induced a higher ability to produce calcified matrix	induced the ability to produce calcified matrix	–
Nc1nccc2c1ncn2[C@@H]1C=C(CO)[C@@H](O)[C@H]1O [DZNep, 3-deazaneplanocin A]	–	–	–	induced the ability to produce calcified matrix	–	–	–	–
CC[C@H](C)C(=O)O[C@H]1C[C@@H](C)C=C2C=C[C@H](C)[C@H](CC[C@@H]3C[C@@H](O)CC(=O)O3)[C@H]21 [LS, lovastatin]	induced the ability to produce calcified matrix	induced the mRNA expression of ALP gene	induced the mRNA expression of Runx2 gene	–	–	–	–	–
CC(C)c1nc(N(C)S(C)(=O)=O)nc(-c2ccc(F)cc2)c1/C=C/[C@@H](O)C[C@@H](O)CC(=O)O [RS, rosuvastatin]	induced the ability to produce calcified matrix	induced the mRNA expression of ALP gene	induced the mRNA expression of Runx2 gene	–	–	–	–	induced the mRNA expression of osteocalcin
